This passage reports IC50 results from ChEMBL document CHEMBL1130192, “Synthesis and antiviral activity of C2 analogs of enviroxime: an exploration of the role of critical functionality” (J Med Chem, 1997).

Each structure is given as a SMILES string. In brackets after ≈: the same amount, converted by molar mass.

The test system of assay [1] is HeLa. Description: Antiviral activity against Poliovirus (PV-1) in HeLa cells using CPE/XTT assay. It is filed as functional, cell-based. Particulars: Homo sapiens. Background: Tetrazolium dyes change colour on reduction, which living cells bring about.
Assay [2] has as its system HeLa. Description: Antiviral activity against Rhinovirus (RV-14) in HeLa cells using CPE/XTT assay. Type of assay: functional, cell-based. Particulars: Homo sapiens.
Assay [3] has as its system HeLa. The assay is described as follows: Antiviral activity against Rhinovirus (RV-16) in HeLa cells using CPE/XTT assay. It is filed as functional, cell-based. Particulars: Homo sapiens.
The subject of assay [4] is HeLa. Description: Antiviral activity against Rhinovirus (RV-2) in HeLa cells using CPE/XTT assay. The note with it: Homo sapiens. Type of assay: functional, cell-based.
In assay [5] the test system is HeLa. Description: Antiviral activity against Coxsackievirus (CoxA21) in HeLa cells using CPE/XTT assay. Type of assay: functional, cell-based. The note with it: Homo sapiens.
The test system of assay [6] is HeLa. The assay is described as follows: Antiviral activity against Rhinovirus (RV-2) in HeLa cells using CPE/XTT assay in HeLa cells using CPE/XTT assay. The note with it: Homo sapiens. Type of assay: functional, cell-based.
The subject of assay [7] is BSC-1. The assay is described as follows: Antiviral activity against Poliovirus (PV-1) using plaque reduction assay in BSC1 cells. Particulars: Chlorocebus aethiops. It is filed as functional, cell-based, Cercopithecidae. Background: Plaques are areas of infected cells; plaque reduction assays count them against a control.
The test system of assay [8] is BSC-1. Description: Antiviral activity against Poliovirus (PV-1) using plaque reduction assay using BSC1 cells. Type of assay: functional, cell-based, Cercopithecidae. Particulars: Chlorocebus aethiops.
Assay [9] relates to HeLa. The assay is described as follows: Antiviral activity against Coxsackie virus (CoxA21) in HeLa cells using CPE/XTT assay. Type of assay: functional, cell-based. Particulars: Homo sapiens.

As usually defined, the IC50 is the point on the concentration scale where inhibition reaches its midpoint. Lower therefore signals inhibition by little substance. Take `Cc1nc2ccc(/C(=N/O)c3ccccc3)cc2n1S(=O)(=O)C(C)C`: the 50% inhibitory concentration (IC50) is 0.23 µg/mL (≈ 0.643 µM) in assay [1]; 0.34 µg/mL (≈ 0.951 µM) in [2]; 0.18 µg/mL (≈ 0.504 µM) in [3]; 0.24 µg/mL (≈ 0.671 µM) in [4]; 0.05 µg/mL (≈ 0.14 µM) in assay [5].

For `CC(C)S(=O)(=O)n1c(N(C)C)nc2ccc(/C(=N/O)c3ccccc3)cc21`, the IC50 was 4.55 µg/mL (≈ 11.8 µM) in assay [1]; 49 µg/mL (≈ 127 µM) in [2]; 0.64 µg/mL (≈ 1.66 µM) in [3]; 30.3 µg/mL (≈ 78.4 µM) in assay [4]; 2.19 µg/mL (≈ 5.67 µM) in assay [5].

On to `CC(C)S(=O)(=O)n1cnc2ccc(/C(=N/O)c3ccccc3)cc21`, for which the IC50 in [1] was 0.57 µg/mL (≈ 1.66 µM); in [2], 0.53 µg/mL (≈ 1.54 µM); in assay [3], 0.16 µg/mL (≈ 0.466 µM); in assay [5], 0.12 µg/mL (≈ 0.349 µM); in assay [6] it was 0.19 µg/mL (≈ 0.553 µM).

Consider `COc1nc2ccc(/C(=N/O)c3ccccc3)cc2n1S(=O)(=O)C(C)C`, for which the IC50 was found to be 0.57 µg/mL (≈ 1.53 µM) in [1]; 0.48 µg/mL (≈ 1.29 µM) in [2]; 0.18 µg/mL (≈ 0.482 µM) in assay [3]; 0.54 µg/mL (≈ 1.45 µM) in [4]; 0.17 µg/mL (≈ 0.455 µM) in assay [5].

Take `CSc1nc2ccc(/C(=N/O)c3ccccc3)cc2n1S(=O)(=O)C(C)C`: the IC50 in assay [1] was found to be 0.59 µg/mL (≈ 1.51 µM); in assay [2] it was 0.76 µg/mL (≈ 1.95 µM); in assay [3], 0.18 µg/mL (≈ 0.462 µM); in [4] it was 0.69 µg/mL (≈ 1.77 µM); in [5], 0.18 µg/mL (≈ 0.462 µM).

For the compound `CC(C)n1c(N)nc2ccc(/C(=N/O)c3ccccc3)cc21`, in assay [7], the IC50 was found to be 0.09 µg/mL (≈ 0.306 µM).

On to `CNc1nc2ccc(/C(=N/O)c3ccccc3)cc2n1S(=O)(=O)C(C)C`, for which the 50% inhibitory concentration (IC50) is 6.16 µg/mL (≈ 16.5 µM) in [1]; 24.4 µg/mL (≈ 65.5 µM) in assay [2]; 1.49 µg/mL (≈ 4 µM) in assay [3]; 54.8 µg/mL (≈ 147 µM) in assay [4]; 7.11 µg/mL (≈ 19.1 µM) in assay [5].

In the case of `CC(C)S(=O)(=O)n1c(N)nc2ccc(/C(=N/O)c3ccccc3)cc21` [ENVIROXIME], the 50% inhibitory concentration (IC50) is 0.02 µg/mL (≈ 0.0558 µM) in assay [8]; 0.06 µg/mL (≈ 0.167 µM) in assay [1]; 0.04 µg/mL (≈ 0.112 µM) in assay [2]; 0.04 µg/mL (≈ 0.112 µM) in assay [3]; 0.07 µg/mL (≈ 0.195 µM) in assay [4]; 0.05 µg/mL (≈ 0.139 µM) in assay [9].
